pIC50: −log10 of the molar value.
Molecular target: T1, human acetyl-CoA carboxylase 2 (ACC2) (Homo sapiens, UniProt O00763)
T1 construct: The cDNA encoding amino acids 144 to 2458 of human acetyl-CoA carboxylase 2; made in house; host or cells: Sf9 insect cells (baculovirus, pFastBac1)
Assay: Acetyl-CoA carboxylase enzyme assay (malonyl-CoA formation by LC/MS/MS)
Format: biochemical
Conditions: recombinant human ACC2 (aa 144-2458); read-out: IC50 ACC2
In short: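 Malonyl-CoA formation was read by LC/MS/MS MRM against a [13C3]-malonyl-CoA internal standard, after acetic acid quench. The enzyme was baculovirus/Sf9-expressed human ACC2 residues 144–2458, given 15 minutes room-temperature compound preincubation in HEPES pH 7.5 buffer with MgCl2, citrate and DTT. Substrate solution held 50 μM acetyl-CoA, 120 μM ATP and 2 mM KHCO3.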

T1 sequence (O00763 144-2458): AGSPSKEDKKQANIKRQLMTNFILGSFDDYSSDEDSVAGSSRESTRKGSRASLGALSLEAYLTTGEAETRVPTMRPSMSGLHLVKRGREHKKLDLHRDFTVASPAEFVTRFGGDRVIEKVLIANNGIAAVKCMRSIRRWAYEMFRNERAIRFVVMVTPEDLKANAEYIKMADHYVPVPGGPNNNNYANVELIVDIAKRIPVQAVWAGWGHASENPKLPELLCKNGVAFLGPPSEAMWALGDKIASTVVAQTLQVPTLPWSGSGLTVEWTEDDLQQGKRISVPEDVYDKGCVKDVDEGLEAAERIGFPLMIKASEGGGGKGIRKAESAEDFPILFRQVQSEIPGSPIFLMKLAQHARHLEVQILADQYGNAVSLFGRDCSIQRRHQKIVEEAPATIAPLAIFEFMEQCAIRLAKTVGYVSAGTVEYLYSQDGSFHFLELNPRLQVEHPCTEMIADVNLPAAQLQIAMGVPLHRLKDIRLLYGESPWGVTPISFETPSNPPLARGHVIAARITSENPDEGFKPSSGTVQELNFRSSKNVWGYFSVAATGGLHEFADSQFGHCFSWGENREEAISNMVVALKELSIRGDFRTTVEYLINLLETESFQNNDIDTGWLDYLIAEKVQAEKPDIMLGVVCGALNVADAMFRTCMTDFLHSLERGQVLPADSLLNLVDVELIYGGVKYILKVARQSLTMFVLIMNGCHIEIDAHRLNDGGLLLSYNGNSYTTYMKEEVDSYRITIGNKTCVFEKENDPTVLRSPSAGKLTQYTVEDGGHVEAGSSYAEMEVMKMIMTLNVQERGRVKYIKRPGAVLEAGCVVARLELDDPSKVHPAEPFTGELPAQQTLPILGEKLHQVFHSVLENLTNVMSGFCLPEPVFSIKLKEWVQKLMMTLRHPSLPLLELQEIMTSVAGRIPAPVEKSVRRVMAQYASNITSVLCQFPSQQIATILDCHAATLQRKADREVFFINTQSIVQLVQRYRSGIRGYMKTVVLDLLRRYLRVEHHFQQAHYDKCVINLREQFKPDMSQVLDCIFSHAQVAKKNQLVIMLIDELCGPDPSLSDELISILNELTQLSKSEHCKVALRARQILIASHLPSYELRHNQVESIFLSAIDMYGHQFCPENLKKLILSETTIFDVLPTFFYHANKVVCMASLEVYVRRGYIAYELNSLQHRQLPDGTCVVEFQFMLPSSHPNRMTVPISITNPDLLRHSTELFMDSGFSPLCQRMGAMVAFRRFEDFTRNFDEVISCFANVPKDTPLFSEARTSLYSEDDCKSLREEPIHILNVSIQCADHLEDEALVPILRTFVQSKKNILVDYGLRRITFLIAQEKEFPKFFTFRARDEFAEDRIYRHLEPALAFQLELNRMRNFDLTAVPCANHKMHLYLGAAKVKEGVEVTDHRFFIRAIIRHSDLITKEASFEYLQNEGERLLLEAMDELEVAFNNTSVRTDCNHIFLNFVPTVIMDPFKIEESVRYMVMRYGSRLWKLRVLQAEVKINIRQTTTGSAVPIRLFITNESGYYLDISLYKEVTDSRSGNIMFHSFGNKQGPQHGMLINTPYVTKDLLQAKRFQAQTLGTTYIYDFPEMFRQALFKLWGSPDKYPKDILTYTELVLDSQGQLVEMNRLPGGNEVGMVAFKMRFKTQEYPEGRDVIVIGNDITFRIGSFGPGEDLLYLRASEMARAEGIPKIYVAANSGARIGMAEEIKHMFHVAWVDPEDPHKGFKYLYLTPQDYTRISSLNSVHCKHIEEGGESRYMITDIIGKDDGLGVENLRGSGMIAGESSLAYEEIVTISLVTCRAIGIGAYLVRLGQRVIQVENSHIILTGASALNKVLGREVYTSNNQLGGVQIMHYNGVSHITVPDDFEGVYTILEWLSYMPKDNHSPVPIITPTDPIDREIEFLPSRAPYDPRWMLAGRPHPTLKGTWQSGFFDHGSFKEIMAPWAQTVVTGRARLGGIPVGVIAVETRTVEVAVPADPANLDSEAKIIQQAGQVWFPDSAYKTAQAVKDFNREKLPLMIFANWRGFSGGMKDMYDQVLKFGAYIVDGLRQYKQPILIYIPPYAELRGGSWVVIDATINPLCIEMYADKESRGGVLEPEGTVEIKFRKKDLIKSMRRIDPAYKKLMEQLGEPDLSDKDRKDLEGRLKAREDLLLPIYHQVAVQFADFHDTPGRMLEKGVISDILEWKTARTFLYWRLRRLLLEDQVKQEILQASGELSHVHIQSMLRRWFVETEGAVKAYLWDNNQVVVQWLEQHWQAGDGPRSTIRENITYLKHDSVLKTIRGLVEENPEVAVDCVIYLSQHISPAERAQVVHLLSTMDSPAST

| pIC50 | Structure (SMILES) |
| --- | --- |
| 6.02 | C[C@H]1CCCN1C(=O)[C@H]1CC[C@H](NS(=O)(=O)c2ccc3ccccc3c2)CC1 [Example 146, N-((1S,4r)-4-((S)-2-methylpyrrolidine-1-carbonyl)cyclohexyl)naphthalene-2-sulfonamide] |
| < 4.46 | C[C@@H](NC(=O)[C@H]1CC[C@@H](NS(=O)(=O)c2ccc3ccccc3c2)CC1)c1ccc(F)cc1 [Example 147, (1s,4S)-N-((R)-1-(4-fluorophenyl)ethyl)-4-(naphthalene-2-sulfonamido)cyclohexanecarboxamide] |
| 6.74 | C[C@@H](NC(=O)[C@H]1CC[C@H](NS(=O)(=O)c2ccc3c(c2)N(C)C(=O)CO3)CC1)c1ccc(F)cc1 [Example 156, (1r,4R)-N-((R)-1-(4-fluorophenyl)ethyl)-4-(4-methyl-3-oxo-3,4-dihydro-2H-benzo[b][1,4]oxazine-6-sulfonamido)cyclohexanecarboxamide] |
| 6.46 | CC(NC(=O)[C@H]1CC[C@H](NS(=O)(=O)c2ccc3c(c2)N(C)CCC3)CC1)c1ccccn1 (some centres unmarked) [Example 159, (1r,4r)-4-(1-methyl-1,2,3,4-tetrahydroquinoline-7-sulfonamido)-N-(1-(pyridin-2-yl)ethyl)cyclohexanecarboxamide] |
| 7.10 | CC(NC(=O)[C@H]1CC[C@H](NS(=O)(=O)c2ccc3c(c2)N(C)CCC3)CC1)c1cccnc1 (some centres unmarked) [Example 160, (1r,4r)-4-(1-methyl-1,2,3,4-tetrahydroquinoline-7-sulfonamido)-N-(1-(pyridin-3-yl)ethyl)cyclohexanecarboxamide] |
| 6.47 | CC(NC(=O)[C@H]1CC[C@H](NS(=O)(=O)c2ccc3c(c2)N(C)CCC3)CC1)c1ccncc1 (some centres unmarked) [Example 161, (1r,4r)-4-(1-methyl-1,2,3,4-tetrahydroquinoline-7-sulfonamido)-N-(1-(pyridin-4-yl)ethyl)cyclohexanecarboxamide] |
| 6.90 | CC(NC(=O)C1CCC(NS(=O)(=O)c2cnc3c(c2)NC2CCCCC2N3)CC1)c1ccc(F)cc1 [Example 162, (1S,4R)-N-((R)-1-(4-fluorophenyl)ethyl)-4-((5aS,9aS)-5,5a,6,7,8,9,9a,10-octahydropyrido[3,2-b]quinoxaline-3-sulfonamido)cyclohexanecarboxamide] |
| 6.69 | CC(C)CC1CCc2cc(S(=O)(=O)N[C@H]3CC[C@H](C(=O)N[C@H](C)c4ccc(F)cc4)CC3)ccc2N1 (stereo partly drawn) [Example 167, (1r,4R)-N-((R)-1-(4-fluorophenyl)ethyl)-4-(2-isobutyl-1,2,3,4-tetrahydroquinoline-6-sulfonamido)cyclohexanecarboxamide] |
| 7.40 | CC1CCc2ccc(S(=O)(=O)N[C@H]3CC[C@H](C(=O)N[C@H](C)c4ccc(F)cc4)CC3)cc2N1 (stereo partly drawn) [Example 168, (1r,4R)-N-((R)-1-(4-fluorophenyl)ethyl)-4-(2-methyl-1,2,3,4-tetrahydroquinoline-7-sulfonamido)cyclohexanecarboxamide] |
| 6.67 | C[C@@H]1CNc2ncc(S(=O)(=O)N[C@H]3CC[C@H](C(=O)N[C@H](C)c4ccc(F)cc4)CC3)cc2N1 [Example 172, (1R,4R)-N-((R)-1-(4-fluorophenyl)ethyl)-4-((R)-2-methyl-1,2,3,4-tetrahydropyrido[3,2-b]pyrazine-7-sulfonamido)cyclohexanecarboxamide] |

The next lines start with the compound.

| Structure (SMILES) | pIC50 |
| --- | --- |
| C[C@@H](NC(=O)[C@H]1CC[C@H](NS(=O)(=O)c2ccc3c(c2)CCC(C)(C)O3)CC1)c1ccc(F)cc1 [Example 144, (1r,4R)-4-(2,2-dimethylchroman-6-sulfonamido)-N-((R)-1-(4-fluorophenyl)ethyl)cyclohexanecarboxamide] | 6.50 |
| C[C@@H](NC(=O)[C@H]1CC[C@H](NS(=O)(=O)c2cnc3c(c2)CCCN3C)CC1)c1ccc(F)cc1 [Example 145, (1r,4R)-N-((R)-1-(4-fluorophenyl)ethyl)-4-(8-methyl-5,6,7,8-tetrahydro-1,8-naphthyridine-3-sulfonamido)cyclohexanecarboxamide] | 6.89 |
| C[C@@H](NC(=O)[C@H]1CC[C@H](NS(=O)(=O)c2ccc3c(c2)N(C)CCC3)CC1)c1ccc(F)cc1 [Example 148, (1r,4R)-N-((R)-1-(4-fluorophenyl)ethyl)-4-(1-methyl-1,2,3,4-tetrahydroquinoline-7-sulfonamido)cyclohexanecarboxamide] | 8.00 |
| C[C@@H](NC(=O)[C@H]1CC[C@H](NS(=O)(=O)c2ccc3c(c2)NCCN3)CC1)c1ccc(F)cc1 [Example 149, (1r,4R)-N-((R)-1-(4-fluorophenyl)ethyl)-4-(1,2,3,4-tetrahydroquinoxaline-6-sulfonamido)cyclohexanecarboxamide] | 6.54 |
| C[C@@H](NC(=O)[C@H]1CC[C@H](NS(=O)(=O)c2ccc3c(c2)NCCO3)CC1)c1ccc(F)cc1 [Example 150, (1r,4R)-4-(3,4-dihydro-2H-benzo[b][1,4]oxazine-6-sulfonamido)-N-((R)-1-(4-fluorophenyl)ethyl)cyclohexanecarboxamide] | 6.98 |
| C[C@@H](NC(=O)[C@H]1CC[C@H](NS(=O)(=O)c2ccc3c(c2)NCCC3)CC1)c1ccc(F)cc1 [Example 151, (1r,4R)-N-((R)-1-(4-fluorophenyl)ethyl)-4-(1,2,3,4-tetrahydroquinoline-7-sulfonamido)cyclohexanecarboxamide] | 7.33 |
| C[C@@H](NC(=O)[C@H]1CC[C@H](NS(=O)(=O)c2ccc3c(c2)CCCN3)CC1)c1ccc(F)cc1 [Example 152, (1r,4R)-N-((R)-1-(4-fluorophenyl)ethyl)-4-(1,2,3,4-tetrahydroquinoline-6-sulfonamido)cyclohexanecarboxamide] | 7.22 |
| C[C@@H](NC(=O)[C@H]1CC[C@H](NS(=O)(=O)c2cnc3c(c2)NCC(C)(C)CN3)CC1)c1ccc(F)cc1 [Example 153, (1r,4R)-4-(3,3-dimethyl-2,3,4,5-tetrahydro-1H-pyrido[2,3-b][1,4]diazepine-8-sulfonamido)-N-((R)-1-(4-fluorophenyl)ethyl)cyclohexanecarboxamide] | 6.36 |
| C[C@@H](NC(=O)[C@H]1CC[C@@H](NS(=O)(=O)c2cnc3c(c2)NCC(C)(C)CN3)CC1)c1ccc(F)cc1 [Example 154, (1s,4S)-4-(3,3-dimethyl-2,3,4,5-tetrahydro-1H-pyrido[2,3-b][1,4]diazepine-8-sulfonamido)-N-((R)-1-(4-fluorophenyl)ethyl)cyclohexanecarboxamide] | 5.70 |
| [2H]C([2H])([2H])N1C(=O)COc2ccc(S(=O)(=O)N[C@H]3CC[C@H](C(=O)N[C@H](C)c4ccc(F)cc4)CC3)cc21 [Example 155, (1r,4R)-N-((R)-1-(4-fluorophenyl)ethyl)-4-(3-oxo-4-(trideuteriomethyl)-3,4-dihydro-2H-benzo[b][1,4]oxazine-6-sulfonamido)cyclohexanecarboxamide] | 6.76 |
| C[C@@H](NC(=O)[C@H]1CC[C@H](NS(=O)(=O)c2ccc3c(c2)N(C)CCO3)CC1)c1ccc(F)cc1 [Example 157, (1r,4R)-N-((R)-1-(4-fluorophenyl)ethyl)-4-(4-methyl-3,4-dihydro-2H-benzo[b][1,4]oxazine-6-sulfonamido)cyclohexanecarboxamide] | 7.42 |
| [2H]C([2H])([2H])N1CCOc2ccc(S(=O)(=O)N[C@H]3CC[C@H](C(=O)N[C@H](C)c4ccc(F)cc4)CC3)cc21 [Example 158, (1r,4R)-N-((R)-1-(4-fluorophenyl)ethyl)-4-(4-(trideuteriomethyl)-3,4-dihydro-2H-benzo[b][1,4]oxazine-6-sulfonamido)cyclohexanecarboxamide] | 7.70 |
| O=C(O)[C@@H]1CCCN(C(=O)[C@H]2CC[C@H](NS(=O)(=O)c3ccc4ccccc4c3)CC2)C1 [Example 163, (R)-1-((1r,4R)-4-(naphthalene-2-sulfonamido)cyclohexanecarbonyl)piperidine-3-carboxylic acid] | 5.07 |
| COC(=O)CN1CCCc2ccc(S(=O)(=O)N[C@H]3CC[C@H](C(=O)N[C@H](C)c4ccc(F)cc4)CC3)cc21 [Example 164, methyl 2-(7-(N-((1R,4r)-4-((R)-1-(4-fluorophenyl)ethylcarbamoyl)cyclohexyl)sulfamoyl)-3,4-dihydroquinolin-1(2H)-yl)acetate] | 6.46 |
| Cc1cnc2c(S(=O)(=O)N[C@H]3CC[C@H](C(=O)N[C@H](C)c4ccc(F)cc4)CC3)cccc2c1 [Example 165, (1r,4R)-N-((R)-1-(4-fluorophenyl)ethyl)-4-(3-methylquinoline-8-sulfonamido)cyclohexanecarboxamide] | 6.17 |
| C[C@@H](NC(=O)[C@H]1CC[C@H](NS(=O)(=O)c2ccc3c(c2)N(CC(=O)O)CCC3)CC1)c1ccc(F)cc1 [Example 166, 2-(7-(N-((1R,4r)-4-((R)-1-(4-fluorophenyl)ethylcarbamoyl)cyclohexyl)sulfamoyl)-3,4-dihydroquinolin-1(2H)-yl)acetic acid] | 6.04 |
| CC1CCc2cc(S(=O)(=O)N[C@H]3CC[C@H](C(=O)N[C@H](C)c4ccc(F)cc4)CC3)ccc2N1 (stereo partly drawn) [Example 169, (1r,4R)-N-((R)-1-(4-fluorophenyl)ethyl)-4-(2-methyl-1,2,3,4-tetrahydroquinoline-6-sulfonamido)cyclohexanecarboxamide] | 6.96 |
| CC[C@H]1CCc2cc(S(=O)(=O)N[C@H]3CC[C@H](C(=O)N[C@H](C)c4ccc(F)cc4)CC3)ccc2N1 [Example 170, (1r,4R)-4-((S)-2-ethyl-1,2,3,4-tetrahydroquinoline-6-sulfonamido)-N-((R)-1-(4-fluorophenyl)ethyl)cyclohexanecarboxamide] | 7.05 |
| CC[C@@H]1CCc2cc(S(=O)(=O)N[C@H]3CC[C@H](C(=O)N[C@H](C)c4ccc(F)cc4)CC3)ccc2N1 [Example 171, (1r,4R)-4-((R)-2-ethyl-1,2,3,4-tetrahydroquinoline-6-sulfonamido)-N-((R)-1-(4-fluorophenyl)ethyl)cyclohexanecarboxamide] | 6.54 |

From patent US8697739B2, “Bicyclic acetyl-CoA carboxylase inhibitors and uses thereof” (Novartis AG, priority 2010, dated 2014)
